Experimental data: patent publication US20170166598A1, “HETEROARYL COMPOUNDS FOR KINASE INHIBITION” (ARIAD PHARMACEUTICALS, INC., priority 2014, published 2017)

Assays:
Type in all cases: cell-based
[1] = target: T1, human EGFR exon 20 insertion NPG (H773_V774insNPG) (Homo sapiens, UniProt P00533, INS772GNP); test: Ba/F3-EGFR-Exon20-NPG cell anti-proliferative assay (CellTiter 96 MTS, 72 h); conditions: Ba/F3-EGFR-Exon20-NPG cells
T1 construct: expressed in transfected cells; host or cells: Ba/F3 (murine pro-B) cells transduced with lentivirus from pLVX-IRES puro
Description: (§1) An expression vector, pLVX-IRES puro (Clontech) coding for human EGFR exon 20 insertions NPG (H773_V774insNPG) or ASV (V769_D770insASV), was transfected into HEK293 cells by the Trans-Lentiviral ORF Packaging System (Thermo Scientific), to produce virus encoding EGFR exon 20 insertions. Ba/F3 (DSMZ) cells maintained in RPMI 1640 medium supplemented with 10% fetal bovine serum, 200 μM L-glutamine/l 200 μg/mL penicillin/200 μg/mL streptomycin (Life Technology) and 10 ng/mL IL-3 (R&D system), were infected by EGFR Exon20 virus and subsequently selected by puromycin (Life Technology) selection and IL-3 depletion. […] The anti-proliferative activity of compounds were determined as follows: BaF3-EGFR-Exon20 cells (NPG or ASV) seeded in 96 well plates (2500 cells/well) were treated with test compound (dissolved in DMSO) at a series of concentrations (4-fold dilution, top concentration: 10,000 nM). The plates were incubated for 72 h in a 37° C. incubator with 5% CO2, and the number of viable cells in each well were measured indirectly by CellTiter 96® Aqueous One Solution Cell Proliferation Assay (Promega) This assay is a colorimetric method for determining the number of viable cells through measurement of their metabolic activity by detection of enzymatic conversion of tetrazolium salts into blue formazan derivatives. Reagent (20 μL) was added into each well, and the plates were returned to the incubator for 2 h. The absorbance in each well was then measured at 490 nm using an Envision plate reader (Perkin Elmer).

[2] = target: T2, human EGFR E746-A750 deletion and T790M Mutation (Homo sapiens, UniProt P00533, DEL746-750/T790M); test: Ba/F3-EGFR-Del/T790M cell anti-proliferative assay (CellTiter 96 MTS, 72 h); conditions: Ba/F3-EGFR-Del/T790M cells
T2 construct: expressed in transfected cells; host or cells: Ba/F3 (murine pro-B) cells transduced with lentivirus from pLVX-IRES puro
Description: An expression vector, pLVX-IRES puro (Clontech) coding for human EGFR E746-A750 deletion and T790M Mutation, was transfected into HEK293 cells by the Trans-Lentiviral ORF Packaging System (Thermo Scientific), to produce virus encoding EGFR exon 19 deletion and T790M mutations. Ba/F3 (DSMZ) cells maintained in RPMI 1640 medium supplemented with 10% fetal bovine serum, 200 μM L-glutamine/200 μg/mL penicillin/200 μg/mL streptomycin (Life Technology) and 10 ng/mL IL-3 (R&D system), were infected by EGFR E746-A750 deletion and T790M Mutation virus and subsequently selected by puromycin (Life Technology) selection and IL-3 depletion. […] The anti-proliferative activity of compounds was determined as follows: BaF3-EGFR-Del/T790M cells seeded in 96 well plates (2500 cells/well) were treated with test compound (dissolved in DMSO) at a series of concentrations (4-fold dilution, top concentration: 10,000 nM). The plates were incubated for 72 h in a 37° C. incubator with 5% CO2, and the number of viable cells in each well were measured indirectly by CellTiter 96® Aqueous One Solution Cell Proliferation Assay (Promega; this assay is a colorimetric method for determining the number of viable cells through measurement of their metabolic activity by detection of enzymatic conversion of tetrazolium salts into blue formazan derivatives). Reagent (20 μL) was added into each well, and the plates were returned to the incubator for 2 h. The absorbance in each well was then measured at 490 nm using an Envision plate reader (Perkin Elmer).

[3] = target: T3, Her2 exon 20 YVMA insertion (A775_G776ins YVMA) (Homo sapiens, UniProt P04626, INS775YVMA); test: Ba/F3-Her2 Exon20 YVMA cell anti-proliferative assay (CellTiter 96 MTS, 72 h); conditions: Ba/F3-Her2 Exon20 YVMA cells
T3 construct: expressed in transfected cells; host or cells: Ba/F3 (murine pro-B) cells transduced with lentivirus from pLVX-IRES puro
Text: A compound's ability in selectively inhibiting Her2 exon 20 YVMA insertion mutations can be assessed using Ba/F3 cells, a murine pro-B cell line, which have been transduced with Her2 Exon20 YVMA insertions. An expression vector, pLVX-IRES puro (Clontech) coding for […] (A775_G776ins YVMA), was transfected into HEK293 cells by the Trans-Lentiviral ORF Packaging System (Thermo Scientific), to produce virus encoding EGFR exon 20 insertions. Ba/F3 (DSMZ) cells maintained in RPMI 1640 medium supplemented with 10% fetal bovine serum, 200 μM L-glutamine/200 μg/mL penicillin/200 μg/mL streptomycin (Life Technology) and 10 ng/mL IL-3 (R&D system), were infected by EGFR Exon20 virus and subsequently selected by puromycin (Life Technology) selection and IL-3 depletion. Ba/F3 cells expressing Her2 Exon20 YVMA insertions (named Ba/F3-Her2 Exon20 YVMA) can proliferate in the absence of IL-3. The anti-proliferative activity of compounds was determined as follows: BaF3-Her2 Exon20 YVMA cells seeded in 96 well plates (2500 cells/well) were treated with test compound (dissolved in DMSO) at a series of concentrations (4-fold dilution, top concentration: 10,000 nM). The plates were incubated for 72 h in a 37° C. incubator with 5% CO2, and the number of viable cells in each well were measured indirectly by CellTiter 96@ Aqueous One Solution Cell Proliferation Assay (Promega; this assay is a colorimetric method for determining the number of viable cells through measurement of their metabolic activity by detection of enzymatic conversion of tetrazolium salts into blue formazan derivatives). Reagent (20 μL) was added into each well, and the plates were returned to the incubator for 2 h. The absorbance in each well was then measured at 490 nm using an Envision plate reader (Perkin Elmer).

[4] = target: T4, human EGFR exon 20 insertion ASV (V769_D770insASV) (Homo sapiens, UniProt P00533, INS769ASV); test: Ba/F3-EGFR-Exon20-ASV cell anti-proliferative assay (CellTiter 96 MTS, 72 h); conditions: Ba/F3-EGFR-Exon20-ASV cells
T4 construct: expressed in transfected cells; host or cells: Ba/F3 (murine pro-B) cells transduced with lentivirus from pLVX-IRES puro
Description: as §1

T1 sequence (P00533 with tags, fused parts or gaps INS772GNP): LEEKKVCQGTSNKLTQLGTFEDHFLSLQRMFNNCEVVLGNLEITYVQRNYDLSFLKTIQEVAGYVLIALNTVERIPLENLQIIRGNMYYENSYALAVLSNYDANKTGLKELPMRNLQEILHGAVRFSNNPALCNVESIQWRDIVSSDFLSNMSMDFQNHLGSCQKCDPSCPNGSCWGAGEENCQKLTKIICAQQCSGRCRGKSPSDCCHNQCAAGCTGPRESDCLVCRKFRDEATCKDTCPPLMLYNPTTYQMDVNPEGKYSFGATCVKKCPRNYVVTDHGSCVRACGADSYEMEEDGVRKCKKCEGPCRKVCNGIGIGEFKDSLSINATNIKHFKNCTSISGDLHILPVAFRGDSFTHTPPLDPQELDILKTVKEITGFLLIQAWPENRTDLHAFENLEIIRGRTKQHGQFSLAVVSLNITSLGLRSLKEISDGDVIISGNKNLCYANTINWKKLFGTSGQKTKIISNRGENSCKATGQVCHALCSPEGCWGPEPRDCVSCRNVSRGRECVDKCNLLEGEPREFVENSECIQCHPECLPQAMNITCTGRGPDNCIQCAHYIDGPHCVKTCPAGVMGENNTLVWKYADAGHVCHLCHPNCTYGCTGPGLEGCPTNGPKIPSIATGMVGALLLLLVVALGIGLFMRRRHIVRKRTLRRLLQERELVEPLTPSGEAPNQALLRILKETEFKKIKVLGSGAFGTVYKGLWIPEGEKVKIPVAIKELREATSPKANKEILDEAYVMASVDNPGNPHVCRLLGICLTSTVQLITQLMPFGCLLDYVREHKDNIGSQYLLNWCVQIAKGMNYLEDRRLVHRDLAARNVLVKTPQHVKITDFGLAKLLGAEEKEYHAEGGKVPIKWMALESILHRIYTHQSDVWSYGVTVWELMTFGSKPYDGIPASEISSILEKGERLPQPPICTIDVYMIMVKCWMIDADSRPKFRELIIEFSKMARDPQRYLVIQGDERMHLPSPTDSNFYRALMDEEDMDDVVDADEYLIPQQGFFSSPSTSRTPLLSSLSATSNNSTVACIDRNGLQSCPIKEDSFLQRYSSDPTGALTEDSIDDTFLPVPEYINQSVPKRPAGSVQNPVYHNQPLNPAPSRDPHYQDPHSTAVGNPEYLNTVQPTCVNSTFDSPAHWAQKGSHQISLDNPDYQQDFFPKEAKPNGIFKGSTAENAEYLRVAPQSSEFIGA
T4 sequence (P00533 with tags, fused parts or gaps INS769ASV): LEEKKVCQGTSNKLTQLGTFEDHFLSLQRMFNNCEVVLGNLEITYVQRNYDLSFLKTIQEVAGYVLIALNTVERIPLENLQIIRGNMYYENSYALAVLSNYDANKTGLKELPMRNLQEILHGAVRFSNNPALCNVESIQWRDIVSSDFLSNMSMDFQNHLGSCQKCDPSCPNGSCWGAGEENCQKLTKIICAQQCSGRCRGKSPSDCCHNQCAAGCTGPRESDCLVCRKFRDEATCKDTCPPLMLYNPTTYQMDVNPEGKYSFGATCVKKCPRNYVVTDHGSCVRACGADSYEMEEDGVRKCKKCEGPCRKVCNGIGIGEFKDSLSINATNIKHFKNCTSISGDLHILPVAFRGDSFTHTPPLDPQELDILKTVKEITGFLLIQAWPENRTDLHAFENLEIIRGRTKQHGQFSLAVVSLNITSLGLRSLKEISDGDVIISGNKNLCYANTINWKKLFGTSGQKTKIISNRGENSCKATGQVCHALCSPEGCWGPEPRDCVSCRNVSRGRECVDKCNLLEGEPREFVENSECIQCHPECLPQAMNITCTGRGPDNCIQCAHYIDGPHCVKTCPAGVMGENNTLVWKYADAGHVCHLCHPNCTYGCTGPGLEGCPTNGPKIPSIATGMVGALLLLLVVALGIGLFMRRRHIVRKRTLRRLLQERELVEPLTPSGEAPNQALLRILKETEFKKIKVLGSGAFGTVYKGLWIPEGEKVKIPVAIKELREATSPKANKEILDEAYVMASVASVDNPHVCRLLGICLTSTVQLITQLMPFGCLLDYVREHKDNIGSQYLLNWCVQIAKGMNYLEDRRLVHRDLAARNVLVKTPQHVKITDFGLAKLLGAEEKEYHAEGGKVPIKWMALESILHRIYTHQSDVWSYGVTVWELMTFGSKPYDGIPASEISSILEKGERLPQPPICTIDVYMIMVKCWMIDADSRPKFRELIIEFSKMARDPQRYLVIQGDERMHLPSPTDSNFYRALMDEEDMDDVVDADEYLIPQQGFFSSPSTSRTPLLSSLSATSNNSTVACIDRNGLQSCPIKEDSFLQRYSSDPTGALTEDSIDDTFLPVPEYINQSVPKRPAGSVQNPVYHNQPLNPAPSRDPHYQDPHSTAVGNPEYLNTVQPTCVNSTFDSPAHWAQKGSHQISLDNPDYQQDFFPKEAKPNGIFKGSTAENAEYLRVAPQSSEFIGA
T3 sequence (P04626 with tags, fused parts or gaps INS775YVMA): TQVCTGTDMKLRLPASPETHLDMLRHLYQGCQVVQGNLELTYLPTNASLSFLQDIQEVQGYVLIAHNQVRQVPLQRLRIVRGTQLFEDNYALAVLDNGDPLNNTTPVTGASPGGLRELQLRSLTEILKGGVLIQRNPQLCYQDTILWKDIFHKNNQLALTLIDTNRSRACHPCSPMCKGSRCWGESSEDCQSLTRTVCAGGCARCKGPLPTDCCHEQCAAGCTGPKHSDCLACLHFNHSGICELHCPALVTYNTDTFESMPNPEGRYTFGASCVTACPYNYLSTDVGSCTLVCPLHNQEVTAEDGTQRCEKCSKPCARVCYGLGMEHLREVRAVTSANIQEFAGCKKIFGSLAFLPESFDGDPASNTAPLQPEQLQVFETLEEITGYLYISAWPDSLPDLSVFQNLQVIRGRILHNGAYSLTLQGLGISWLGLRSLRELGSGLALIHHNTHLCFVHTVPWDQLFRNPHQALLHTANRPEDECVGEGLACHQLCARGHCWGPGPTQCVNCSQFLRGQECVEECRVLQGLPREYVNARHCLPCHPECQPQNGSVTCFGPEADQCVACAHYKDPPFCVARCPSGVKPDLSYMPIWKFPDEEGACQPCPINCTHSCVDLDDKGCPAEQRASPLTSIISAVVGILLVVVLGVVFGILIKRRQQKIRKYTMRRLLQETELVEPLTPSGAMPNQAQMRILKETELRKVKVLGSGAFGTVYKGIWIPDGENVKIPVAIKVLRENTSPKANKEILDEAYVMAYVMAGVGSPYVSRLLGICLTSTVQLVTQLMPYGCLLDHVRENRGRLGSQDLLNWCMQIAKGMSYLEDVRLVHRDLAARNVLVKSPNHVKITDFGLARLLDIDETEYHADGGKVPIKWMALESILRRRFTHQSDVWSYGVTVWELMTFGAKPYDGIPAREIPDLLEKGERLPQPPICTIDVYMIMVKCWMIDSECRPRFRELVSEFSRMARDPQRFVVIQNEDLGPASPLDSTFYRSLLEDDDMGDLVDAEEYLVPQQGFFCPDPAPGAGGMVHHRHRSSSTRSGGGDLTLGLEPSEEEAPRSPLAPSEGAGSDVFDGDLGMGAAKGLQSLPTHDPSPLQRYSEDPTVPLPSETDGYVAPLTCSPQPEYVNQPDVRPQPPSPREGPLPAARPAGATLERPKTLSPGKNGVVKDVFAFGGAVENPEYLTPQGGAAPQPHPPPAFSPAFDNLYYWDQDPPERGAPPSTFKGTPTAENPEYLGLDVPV
T2 sequence (P00533 with tags, fused parts or gaps DEL746-750/T790M): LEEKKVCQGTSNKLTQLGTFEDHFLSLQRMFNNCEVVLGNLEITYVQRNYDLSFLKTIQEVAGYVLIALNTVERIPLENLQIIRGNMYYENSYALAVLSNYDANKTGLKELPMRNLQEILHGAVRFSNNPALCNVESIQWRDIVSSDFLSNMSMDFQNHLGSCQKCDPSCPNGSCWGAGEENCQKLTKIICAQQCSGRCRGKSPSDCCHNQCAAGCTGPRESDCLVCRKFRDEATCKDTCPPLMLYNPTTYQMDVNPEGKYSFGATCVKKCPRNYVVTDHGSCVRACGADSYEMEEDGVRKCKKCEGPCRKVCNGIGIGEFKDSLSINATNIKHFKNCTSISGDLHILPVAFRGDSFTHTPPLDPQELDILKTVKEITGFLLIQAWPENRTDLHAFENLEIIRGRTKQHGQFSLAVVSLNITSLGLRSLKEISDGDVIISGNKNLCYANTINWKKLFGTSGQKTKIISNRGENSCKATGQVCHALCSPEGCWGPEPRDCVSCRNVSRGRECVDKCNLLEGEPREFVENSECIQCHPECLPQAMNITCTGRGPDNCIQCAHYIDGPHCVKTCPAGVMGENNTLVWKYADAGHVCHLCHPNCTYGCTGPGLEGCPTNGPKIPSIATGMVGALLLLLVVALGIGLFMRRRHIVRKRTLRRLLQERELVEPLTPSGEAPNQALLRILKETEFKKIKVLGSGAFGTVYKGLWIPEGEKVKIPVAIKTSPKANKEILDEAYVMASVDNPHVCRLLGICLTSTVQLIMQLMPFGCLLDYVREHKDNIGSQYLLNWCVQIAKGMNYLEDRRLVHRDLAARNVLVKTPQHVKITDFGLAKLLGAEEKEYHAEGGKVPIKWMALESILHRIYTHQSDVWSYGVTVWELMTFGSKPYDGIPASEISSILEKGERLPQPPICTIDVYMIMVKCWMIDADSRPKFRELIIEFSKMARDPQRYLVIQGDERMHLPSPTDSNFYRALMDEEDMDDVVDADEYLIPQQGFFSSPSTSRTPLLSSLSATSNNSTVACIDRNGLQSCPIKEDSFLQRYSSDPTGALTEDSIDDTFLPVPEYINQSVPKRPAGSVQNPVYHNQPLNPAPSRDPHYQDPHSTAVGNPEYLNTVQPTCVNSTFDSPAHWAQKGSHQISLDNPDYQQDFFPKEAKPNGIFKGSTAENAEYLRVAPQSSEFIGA

| IC50 [1] | IC50 [3] | IC50 [4] | Structure (SMILES) | EGFR exon 19 deletion and exon 20 T790M mutation IC50 [2] |
| --- | --- | --- | --- | --- |
| < 100 nM | 100 to 500 nM | 100 to 500 nM | C=CC(=O)Nc1cc(Nc2ncc(C#N)c(-c3cn4c5c(cccc35)OCC4)n2)c(OC)cc1N1CC(N(C)C)C1 [Example 6, N-(5-((5-cyano-4-(2,3-dihydro-[1,4]oxazino[2,3,4-hi]indol-6-yl)pyrimidin-2-yl)amino)-2-(3-(dimethylamino)azetidin-1-yl)-4-methoxyphenyl)acrylamide] | A (IC50 value for the indicated mutant below about 100 nM) |
| < 100 nM | 500 to 1000 nM | 100 to 500 nM | C=CC(=O)Nc1cc(Nc2nccc(-c3c(-c4ncco4)n4c5c(cccc35)CCC4)n2)c(OC)cc1N(C)CCN(C)C [Example 63, N-(2-((2-(dimethylamino)ethyl)(methyl)amino)-4-methoxy-5-((4-(2-(oxazol-2-yl)-5,6-dihydro-4H-pyrrolo[3,2,1-ij]quinolin-1-yl)pyrimidin-2-yl)amino)phenyl)acrylamide] | A (IC50 value for the indicated mutant below about 100 nM) |
| < 100 nM | 100 to 500 nM | < 100 nM | C=CC(=O)Nc1cc(Nc2nccc(-c3c(N4CC[C@@H](O)C4)n4c5c(cccc35)CCC4)n2)c(OC)cc1N(C)CCN(C)C [Example 74, (R)-N-(2-((2-(dimethylamino)ethyl)-(methyl)amino)-5-((4-(2-(3-hydroxypyrrolidin-1-yl)-5,6-dihydro-4H-pyrrolo[3,2,1-ij]quinolin-1-yl)pyrimidin-2-yl)amino)-4-methoxyphenyl)-acrylamide] | A (IC50 value for the indicated mutant below about 100 nM) |
| < 100 nM | 100 to 500 nM | < 100 nM | C=CC(=O)Nc1cc(Nc2nccc(-c3c(N4CCC(F)C4)n4c5c(cccc35)CCC4)n2)c(OC)cc1N(C)CCN(C)C (centres unmarked) [Example 92] | A (IC50 value for the indicated mutant below about 100 nM) |
| < 100 nM | < 100 nM | < 100 nM | C=CC(=O)Nc1cc(Nc2ncc(CCCOC)c(-c3cn4c5c(cccc35)CCC4)n2)c(OC)cc1N(C)CCN(C)C [Example 33, N-(5-((4-(5,6-dihydro-4H-pyrrolo[3,2,1-ij]quinolin-1-yl)-5-(3-methoxypropyl)pyrimidin-2-yl)amino)-2-((2-(dimethylamino)ethyl)(methyl)amino)-4-methoxyphenyl)acrylamide] | A (IC50 value for the indicated mutant below about 100 nM) |

More lines, now with the values behind:

| Structure (SMILES) | IC50 [1] | IC50 [3] | IC50 [4] | EGFR exon 19 deletion and exon 20 T790M mutation IC50 [2] |
| --- | --- | --- | --- | --- |
| C=CC(=O)Nc1cc(Nc2ncc(-c3nnco3)c(-c3cn4c5c(cccc35)CCC4)n2)c(OC)cc1N(C)CCN(C)C [Example 71, N-(5-((4-(5,6-dihydro-4H-pyrrolo[3,2,1-ij]quinolin-1-yl)-5-(1,3,4-oxadiazol-2-yl)pyrimidin-2-yl)amino)-2-((2-(dimethylamino)ethyl)(methyl)amino)-4-methoxyphenyl)acrylamide] | < 100 nM | < 100 nM | < 100 nM | A (IC50 value for the indicated mutant below about 100 nM) |
| C=CC(=O)Nc1cc(Nc2ncc(/C=C\C#N)c(-c3cn4c5c(cccc35)CCC4)n2)c(OC)cc1N(C)CCN(C)C [Example 43, (Z)-N-(5-((5-(2-cyanovinyl)-4-(5,6-dihydro-4H-pyrrolo[3,2,1-ij]quinolin-1-yl)pyrimidin-2-yl)amino)-2-((2-(dimethylamino)ethyl)(methyl)amino)-4-methoxyphenyl)acrylamide] | < 100 nM | < 100 nM | < 100 nM | A (IC50 value for the indicated mutant below about 100 nM) |
| COc1cc(F)c(NC(=O)/C=C/CN(C)C)cc1Nc1ncc(Cl)c(-c2cn3c4c(cccc24)OCC3)n1 [Example 82, (E)-N-(5-((5-chloro-4-(2,3-dihydro-[1,4]oxazino[2,3,4-hi]indol-6-yl)pyrimidin-2-yl)amino)-2-fluoro-4-methoxyphenyl)-4-(dimethylamino)but-2-enamide] | 100 to 500 nM | > 1000 nM | 500 to 1000 nM | A (IC50 value for the indicated mutant below about 100 nM) |
| C=CC(=O)Nc1cc(Nc2ncc(CO)c(-c3cn4c5c(cccc35)CCC4)n2)c(OC)cc1N(C)CCN(C)C [Example 70, N-(5-((4-(5,6-dihydro-4H-pyrrolo[3,2,1-ij]quinolin-1-yl)-5-(hydroxymethyl)pyrimidin-2-yl)amino)-2-((2-(dimethylamino)ethyl)-(methyl)amino)-4-methoxyphenyl)acrylamide] | < 100 nM | 100 to 500 nM | < 100 nM | A (IC50 value for the indicated mutant below about 100 nM) |
| C=CC(=O)Nc1cc(Nc2ncc(C#N)c(-c3cn4c5c(cccc35)N(C)CC4)n2)c(OC)cc1N(C)CCN(C)C [Example 56, N-(5-((5-cyano-4-(1-methyl-2,3-dihydro-1H-pyrrolo[1,2,3-de]quinoxalin-6-yl)pyrimidin-2-yl)amino)-2-((2-(dimethylamino)ethyl)-(methyl)amino)-4-methoxyphenyl)acrylamide] | 100 to 500 nM | 500 to 1000 nM | 500 to 1000 nM | A (IC50 value for the indicated mutant below about 100 nM) |
| C=CC(=O)Nc1cc(Nc2ncc(C(=O)OC)c(-c3cn4c5c(cccc35)CCC4)n2)c(OC)cc1N(C)CCN(C)C [Example 44, methyl 2-((5-acrylamido-4-((2-(dimethylamino)ethyl)(methyl)amino)-2-methoxyphenyl)amino)-4-(5,6-dihydro-4H-pyrrolo[3,2,1-ij]quinolin-1-yl)pyrimidin-5-carboxylate] | < 100 nM | < 100 nM | < 100 nM | A (IC50 value for the indicated mutant below about 100 nM) |
